Patent publication US20120263849A1, “BITTERNESS SUPPRESSION METHOD” (KAO CORPORATION, priority 2010, published 2012)

Test: Sensory test of bitterness, agent added to quinine sulfate standard solutions
Type: in vivo, people
Conditions: summary of Tables 2 to 4 (quinine sulfate and catechin test solutions)
Description: The bitterness suppression agent of the present invention may be applied to any substance without any particular limitation as long as the substance contains a bitter component. It is preferably applied to a composition having a bitterness having a bitterness intensity of 7 or less based on the quinine sulfate standard solution. […] More specifically, the bitterness intensity is determined by the following procedure. […] Then, the values of bitterness intensity determined by each subject are averaged out and provided as the bitterness intensity of the test substance. […]
Five subjects conducted a sensory test with reference to the bitterness level of each test solution using the quinine sulfate standard solutions shown in the following Table 1 as a standard, and an average score of the evaluation scores submitted by each subject was calculated. […]

## COC(=O)c1ccccc1O [methyl salicylate]
  Suppression of bitterness (summary in words): effective suppression of bitterness without impairing the original taste and flavor
